# According to patent US20250213649A1, “PEPTIDE HAVING ANTI-INFLAMMATORY AND ANTI-FIBROTIC ACTIVITIES AND USE THEREOF” (CAREGEN CO., LTD., priority 2022, published 2025):
# Tests used:
# BALB/c mice = test: BLM-induced pulmonary fibrosis model, cell counts in bronchoalveolar lavage fluid; assay type: in vivo; conditions: BALB/c male mice, peptide 1 mg/mouse intranasal three times a week for 14 days, 21st day (FIG. 13b)
# Description: As shown in [Table 6] below, 8-week-old BALB/c male mice were divided into 4 groups of 5 mice each. On the 1st day, a Bleomycin solution ([…]/50 μl/mouse) was administered through the oropharynx to carry out one time of induction with BLM. Then, from the 7th day, the peptide of Production Example 1 (1 mg/mouse) was administered intranasally three times a week for 14 days, and Pirfeninone (2 mg/mouse) for a positive control group was administered orally three times a week for 14 days. On the 21st day of the induction with BLM, mice were sacrificed to obtain the bronchoalveolar lavage fluid and the lung tissue, which were used in the next analysis.
# The mouse subjected to the animal experiment was anesthetized, and then the treatment area was disinfected with 70% ethanol. […] The separated cells were resuspended in 0.5 ml of PBS, subsequently diluted with trypan blue solution at a 1:1 ratio, and then the total number of cells was counted using a hematocytometer. […] After staining, cells were observed and counted through a microscope, and then the number of immune cells with respect to the total number of cells was calculated to show the results as a graph. […]
# MRC-5 cells [1] = test: Inhibition of fibrosis gene expression induced by LPS, RT-PCR, MRC-5 cells; assay type: cell-based; conditions: 5 μg/ml LPS, peptide 10, 50, 100, 500 μM, 3 hours, RT-PCR (FIG. 6)
# Description: MRC-5 cells (lung fibroblast cells) were seeded at 2×10^5 cells/well in a 12-well plate and used in the experiment. After culturing for 1 day with a culture medium containing 10% FBS, the culture medium was replaced with a culture medium without containing FBS to induce starvation for 4 hours. Cells of a normal group without being treated with any substances, a group treated with 5 μg/ml of LPS (Sigma Aldrich) (negative control group), groups treated with 5 μg/ml of LPS and the peptide of Production Example 1 (10, 50, 100, 500 μM), and a group treated with 5 μg/ml of LPS and 10 μM of Dexamethasone (DEX) (positive control group) were treated with the above-described active substances and drugs respectively, and then RNA was extracted after 3 hours to carry out RT-PCR. RNA was extracted from MRC-5 cells using an easy-BLUE™ Total RNA extraction kit (Qiagen, Germany). The extracted RNA was converted into cDNA using RT-PCR premix (iNtRON Biotechnology, Seongnam, Korea). After preparing a reaction mixture with PCR premix (iNtRON Biotechnology, Seongnam, Korea) and primers for each gene, PCR was carried out using a PCR machine (Eppendorf, Germany). Next, the mRNA expression pattern was determined by agarose gel electrophoresis.
# A549 cells = test: ELISA of inflammatory cytokine proteins induced by IL-1β, A549 cells; assay type: cell-based, human; conditions: IL-1β 2 ng/ml, peptide 10, 50, 100, 500 μM, 72 hours, culture supernatant (FIG. 9a-9c)
# Description: A549 cells (human alveolar basal epithelial cells) were seeded at 2×10^5 cells/well in a 12-well plate and used in the experiment. After culturing for 1 day with a culture medium containing 10% FBS, the culture medium was replaced with a culture medium without containing FBS to induce starvation for 4 hours. Cells of a normal group (NON) without being treated with any substances, a group treated with IL-1β (2 ng/ml) (negative control group, NC), groups treated with IL-1β (2 ng/ml) and the peptide of Production Example 1 (10, 50, 100, 500 μM), and a group treated with IL-1β (2 ng/ml) and Dexamethasone (DEX) (10 μM) (positive control group) were treated with active substances and drugs respectively, and then cultured for 72 hours. After cell culture, the supernatant obtained by centrifuging the culture solution at 4° C. and 3,000 rpm for 10 minutes was subjected to ELISA analysis using an IL-6 Quantikine ELISA Kit (R&D systems), an IL-8 Quantikine ELISA Kit (R&D systems), and an IL-1β Quantikine ELISA Kit (R&D systems) according to the method of use in the kit instructions, and then the absorbance was measured at 450 nm using a microplate reader.
# MRC-5 cells [2] = test: ELISA of LPS-induced IL-6 and IL-8, MRC-5 cells; assay type: cell-based; conditions: 5 μg/ml LPS, peptide 10, 50, 100, 500 μM, 72 hours, culture supernatant (FIG. 5a, 5b)
# Description: MRC-5 cells (lung fibroblast cells) were seeded at 2×10^5 cells/well in a 12-well plate and used in the experiment. After culturing for 1 day with a culture medium containing 10% FBS, the culture medium was replaced with a culture medium without containing FBS to induce starvation for 4 hours. Cells of a normal group without being treated with any substances, a group treated with 5 μg/ml of LPS (Sigma Aldrich) (negative control group), groups treated with 5 μg/ml of LPS and the peptide of Production Example 1 (10, 50, 100, 500 μM), and a group treated with 5 μg/ml of LPS and 10μM of Dexamethasone (DEX) (positive control group) were treated with active substances and drugs respectively and then cultured for 72 hours. After cell culture, the supernatant obtained by centrifuging the culture solution at 4° C. and 3,000 rpm for 10 minutes was subjected to ELISA analysis using an IL-6 Quantikine ELISA Kit (R&D systems) and an IL-8 Quantikine ELISA kit (R&D systems) according to the method of use in the kit instructions, and then the absorbance was measured at 450 nm using a microplate reader.
sequence,measurement,setting,value
KYLLVHRPYYRR [peptide of Production Example 1],number of lymphocytes in bronchoalveolar lavage fluid,BALB/c mice,decreased the increased number of macrophages and the increased number of lymphocytes
same,number of macrophages in bronchoalveolar lavage fluid,BALB/c mice,decreased the increased number of macrophages
same,expression level of Collagen 1A1 gene,MRC-5 cells [1],decreases again the expression levels of the α-SMA and Collagen 1A1 genes in a concentration-dependent manner
same,expression level of α-SMA gene,MRC-5 cells [1],decreases again the expression levels of the α-SMA and Collagen 1A1 genes in a concentration-dependent manner
same,expression level of IL-1β (ELISA),A549 cells,"decreases the expression levels of IL-1B, IL-6, and IL-8 in a concentration-dependent manner"
same,expression level of IL-6 (ELISA),A549 cells,"decreases the expression levels of IL-1B, IL-6, and IL-8 in a concentration-dependent manner"
same,expression level of IL-8 (ELISA),A549 cells,"decreases the expression levels of IL-1B, IL-6, and IL-8 in a concentration-dependent manner"
same,expression level of IL-6 (ELISA),MRC-5 cells [2],decreased the expression levels of IL-6 and IL-8 in a concentration-dependent manner
same,expression level of IL-8 (ELISA),MRC-5 cells [2],decreased the expression levels of IL-6 and IL-8 in a concentration-dependent manner
